Experimental findings from US20050165074A1, “Amide derivatives as C-KIT modulators” (Ambit Biosciences Corporation, priority 2003, published 2005) are described below.

Molecules are shown by their SMILES. Where only a bound is given, the exact number is not on record here.

For orientation: Kd means a measure of binding affinity in units of concentration. High values mean weaker binding, low ones tighter binding.

Chain of KIT (JMminus) (P10721 589-937 limits assumed): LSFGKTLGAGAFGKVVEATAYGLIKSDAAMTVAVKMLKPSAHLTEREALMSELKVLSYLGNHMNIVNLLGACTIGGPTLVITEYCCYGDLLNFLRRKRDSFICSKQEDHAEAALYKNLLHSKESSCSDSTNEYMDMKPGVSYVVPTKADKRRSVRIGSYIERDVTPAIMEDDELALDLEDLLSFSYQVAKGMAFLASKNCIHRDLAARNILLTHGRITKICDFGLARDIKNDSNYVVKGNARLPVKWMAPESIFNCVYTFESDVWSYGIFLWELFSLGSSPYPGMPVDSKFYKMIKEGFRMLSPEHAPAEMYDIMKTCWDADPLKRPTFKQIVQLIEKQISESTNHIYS
Chain of KIT (DKIN) (P10721 589-937 limits assumed): as above

The target in one assay is KIT (JMminus) (Homo sapiens, UniProt P10721). The experiment in a line: Binding constant (Kd) measurement, phage-displayed kinase competition binding assay, KIT (JMminus). As to conditions: c-Kit, JMminus construct. From the text:
(§1) The term “ND” represents non-determined values.
Regarding `Cc1nn(C)c(Cl)c1C(=O)Nc1ccc(CC(=O)Nc2cc(C(C)(C)C)on2)cc1`, the Kd was under 100 nM. On the same count and under the same terms, in the case of `CSc1ncc(Br)c(C(=O)Nc2ccc(CC(=O)Nc3cc(C(C)(C)C)on3)cc2)n1` it was under 100 nM; in that of `CC(C)(C)c1cc(NC(=O)Cc2ccc(NC(=O)c3ccc4cnccc4n3)cc2)no1`, under 100 nM.

Compound `Cn1cc(C(=O)Nc2ccc(CC(=O)Nc3cc(C(C)(C)C)on3)cc2)c2ccccc21` had a Kd of under 100 nM. Turning to `CC(C)(C)c1cc(NC(=O)Cc2ccc(NC(=O)c3cccc4cccnc34)cc2)no1`, the Kd lay within 100 to 1000 nM. `CC(C)(C)c1cc(NC(=O)Cc2ccc(NC(=O)c3cnc4ccccc4c3)cc2)no1` gave a dissociation constant Kd of under 100 nM.

Another assay addresses KIT (DKIN) (Homo sapiens, UniProt P10721). The experiment in a line: Binding constant (Kd) measurement, phage-displayed kinase competition binding assay, KIT (DKIN). As to conditions: c-Kit, DKIN construct.
Excerpt: as §1
`COc1ccc(CC(=O)Nc2cc(C(C)(C)C)no2)cc1`: the Kd is 100 to 1000 nM. On the same count and under the same terms, for `CC(C)(C)c1cc(NC(=O)Cc2ccc(OCc3ccccc3)cc2)on1` the value was 100 to 1000 nM; for `COc1cccc2cc([C@H](C)C(=O)Nc3cc(C(C)(C)C)on3)ccc12`, 1000 to 10000 nM; for `CC(C)(C)c1cc(NC(=O)Cc2ccc(F)cc2)on1`, 1000 to 10000 nM. Still for that read-out and setting: for `CC(C)(C)c1cc(NC(=O)Cc2ccc(Cl)cc2)on1` the value was 1000 to 10000 nM. The compound `CC(C)(C)c1cc(NC(=O)Cc2ccc(Br)cc2)on1` returned a Kd of 100 to 1000 nM.
